Assay results as given in patent US20120220564A1, “SELECTIVE CALCIUM CHANNEL MODULATORS” (Zalicus Pharmaceuticals Ltd., priority 2009, published 2012).

Experiments:
[1] = target: T1, α1G (CaV 3.1) (Homo sapiens, UniProt O43497); experiment: T-type calcium channel block, whole cell patch clamp; format: cell-based; conditions: HEK cells, mainly non-inactivated protocol; values above 10,000 nM represented as 10000
T1 construct: expressed in transfected cells; host or cells: HEK 293
Protocol: (§1) T-type calcium channel blocking activity was assayed in human embryonic kidney cells, HEK 293 (Invitrogen), stably transfected with the T-type calcium channel subunits. Briefly, cells were cultured in Dulbecco's modified eagle medium (DMEM) supplemented with 10% fetal bovine serum, 200 U/ml penicillin, and 0.2 mg/mL streptomycin at 37° C. with 5% CO2. At 85% confluency, cells were split with 0.25% trypsin/1 mM EDTA and plated at 10% confluency on glass coverslips. At 12 hours, the medium was replaced, and the cells stably transfected using a standard calcium phosphate protocol and the appropriate calcium channel cDNA's. Fresh DMEM was supplied, and the cells transferred to 28° C./5% CO2. Cells were incubated for 1 to 2 days prior to whole cell recording.
(§2) Standard patch-clamp techniques were employed to identify blockers of T-type currents. Briefly, previously described HEK cell lines stably expressing human α1G, α1H and α1I T-type channels were used for all the recordings (passage #: 4-20, 37° C., 5% CO2). Whole cell patch clamp experiments were performed using an Axopatch 200B amplifier (Axon Instruments, Burlingame, Calif.) linked to a personal computer equipped with pCLAMP software. Data were analyzed using Clampfit (Axon Instruments) and SigmaPlot 4.0 (Jandel Scientific). To obtain T-type currents, plastic dishes containing semi-confluent cells were positioned on the stage of a ZEISS AXIOVERT S100 microscope after replacing the culture medium with external solution (Table 2). Whole-cell patches were obtained using pipettes (borosilicate glass with filament, O.D.: 1.5 mm, I.D.: 0.86 mm, 10 cm length), fabricated on a SUTTER P-97 puller with resistance values of ˜5 MΩ (Table 3).
(§3) T-type currents were reliably obtained by using two voltage protocols:
(§4) In the non-inactivating protocol, the holding potential is set at −110 mV and with a pre-pulse at −100 mV for 1 second prior to the test pulse at −40 mV for 50 ms. In the inactivation protocol, the pre-pulse is at approximately −85 mV for 1 second, which inactivates about 15% of the T-type channels (Scheme 1).
(§5) Test compounds were dissolved in external solution, 0.1-0.01% DMSO. After ˜10 minutes rest, they were applied by gravity close to the cell using a WPI microfil tubing. The “non-inactivated” pre-pulse was used to examine the resting block of a compound. The “inactivated” protocol was employed to study voltage-dependent block. However, the initial data shown below were mainly obtained using the non-inactivated protocol only. IC50 values are shown for various compounds of the invention in Table 4. […] In Table 4, empty cells indicate that inhibition by the compound was not detected.

[2] = target: T2, α1H (CaV 3.2) (Homo sapiens, UniProt O95180); experiment: as above; format: cell-based; conditions: HEK cells, mainly non-inactivated protocol; values above 10,000 nM represented as 10000
T2 construct: expressed in transfected cells; host or cells: HEK 293
Protocol: as §1, §2, §3, §4, §5

T2 sequence (O95180 whole entry): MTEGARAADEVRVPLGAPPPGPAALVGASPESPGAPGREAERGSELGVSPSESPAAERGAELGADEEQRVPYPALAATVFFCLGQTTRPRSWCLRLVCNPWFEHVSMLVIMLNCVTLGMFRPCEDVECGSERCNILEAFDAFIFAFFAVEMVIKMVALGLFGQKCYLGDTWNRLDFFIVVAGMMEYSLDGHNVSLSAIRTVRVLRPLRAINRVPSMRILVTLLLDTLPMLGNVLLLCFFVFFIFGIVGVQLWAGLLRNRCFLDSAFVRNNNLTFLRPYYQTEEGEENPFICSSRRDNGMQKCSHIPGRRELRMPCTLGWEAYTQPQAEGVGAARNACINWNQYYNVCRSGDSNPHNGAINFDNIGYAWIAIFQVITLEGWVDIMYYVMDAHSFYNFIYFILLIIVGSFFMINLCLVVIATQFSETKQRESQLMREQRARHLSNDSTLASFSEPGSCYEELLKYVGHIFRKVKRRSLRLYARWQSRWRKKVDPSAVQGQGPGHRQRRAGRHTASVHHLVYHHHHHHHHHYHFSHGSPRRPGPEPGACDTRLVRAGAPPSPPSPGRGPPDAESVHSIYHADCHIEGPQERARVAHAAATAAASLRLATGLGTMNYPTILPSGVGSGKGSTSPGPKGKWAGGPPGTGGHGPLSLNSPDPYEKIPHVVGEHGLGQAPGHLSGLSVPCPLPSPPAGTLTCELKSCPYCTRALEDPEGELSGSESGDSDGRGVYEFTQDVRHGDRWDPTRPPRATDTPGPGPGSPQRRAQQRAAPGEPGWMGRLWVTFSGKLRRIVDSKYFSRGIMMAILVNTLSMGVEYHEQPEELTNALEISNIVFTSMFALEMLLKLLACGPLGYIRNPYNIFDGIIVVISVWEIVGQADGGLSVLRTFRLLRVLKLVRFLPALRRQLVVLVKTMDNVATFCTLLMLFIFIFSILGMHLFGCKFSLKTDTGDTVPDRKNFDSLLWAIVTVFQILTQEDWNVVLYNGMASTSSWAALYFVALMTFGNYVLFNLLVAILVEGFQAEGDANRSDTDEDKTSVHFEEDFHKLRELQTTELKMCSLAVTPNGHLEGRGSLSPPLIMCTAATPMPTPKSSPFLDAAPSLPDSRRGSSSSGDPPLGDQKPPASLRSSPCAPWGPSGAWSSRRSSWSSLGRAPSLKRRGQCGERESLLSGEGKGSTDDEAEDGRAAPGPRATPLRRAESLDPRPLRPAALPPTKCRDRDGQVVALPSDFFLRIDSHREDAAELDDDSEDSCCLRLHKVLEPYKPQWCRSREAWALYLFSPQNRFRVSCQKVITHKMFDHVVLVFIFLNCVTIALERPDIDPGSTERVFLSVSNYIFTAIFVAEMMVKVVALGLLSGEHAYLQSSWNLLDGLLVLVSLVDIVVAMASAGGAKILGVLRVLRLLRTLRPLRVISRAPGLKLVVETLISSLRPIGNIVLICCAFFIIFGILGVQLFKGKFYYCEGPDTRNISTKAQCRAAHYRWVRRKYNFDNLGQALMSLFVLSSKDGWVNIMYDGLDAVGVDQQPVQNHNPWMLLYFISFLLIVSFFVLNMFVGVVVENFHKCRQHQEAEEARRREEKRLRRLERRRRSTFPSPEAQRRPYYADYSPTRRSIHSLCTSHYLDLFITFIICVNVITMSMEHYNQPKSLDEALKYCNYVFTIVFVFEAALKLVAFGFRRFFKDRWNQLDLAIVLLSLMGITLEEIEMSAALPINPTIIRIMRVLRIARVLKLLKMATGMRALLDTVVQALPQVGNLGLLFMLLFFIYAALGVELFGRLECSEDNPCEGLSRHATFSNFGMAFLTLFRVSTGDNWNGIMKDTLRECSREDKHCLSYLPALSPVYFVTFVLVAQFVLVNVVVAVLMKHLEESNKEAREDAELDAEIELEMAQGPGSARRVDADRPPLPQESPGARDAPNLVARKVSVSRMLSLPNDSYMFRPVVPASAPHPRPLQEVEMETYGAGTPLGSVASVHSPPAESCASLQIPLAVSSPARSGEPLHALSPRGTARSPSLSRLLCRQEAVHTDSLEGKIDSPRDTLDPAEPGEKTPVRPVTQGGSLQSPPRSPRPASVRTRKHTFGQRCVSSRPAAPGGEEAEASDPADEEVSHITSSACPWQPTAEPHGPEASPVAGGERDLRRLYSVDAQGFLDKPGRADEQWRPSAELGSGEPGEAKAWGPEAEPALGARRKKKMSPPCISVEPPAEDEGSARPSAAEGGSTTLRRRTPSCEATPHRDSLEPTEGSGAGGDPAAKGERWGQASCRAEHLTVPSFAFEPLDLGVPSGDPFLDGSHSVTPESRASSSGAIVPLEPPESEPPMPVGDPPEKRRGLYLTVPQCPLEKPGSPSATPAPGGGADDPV
T1 sequence (O43497 whole entry): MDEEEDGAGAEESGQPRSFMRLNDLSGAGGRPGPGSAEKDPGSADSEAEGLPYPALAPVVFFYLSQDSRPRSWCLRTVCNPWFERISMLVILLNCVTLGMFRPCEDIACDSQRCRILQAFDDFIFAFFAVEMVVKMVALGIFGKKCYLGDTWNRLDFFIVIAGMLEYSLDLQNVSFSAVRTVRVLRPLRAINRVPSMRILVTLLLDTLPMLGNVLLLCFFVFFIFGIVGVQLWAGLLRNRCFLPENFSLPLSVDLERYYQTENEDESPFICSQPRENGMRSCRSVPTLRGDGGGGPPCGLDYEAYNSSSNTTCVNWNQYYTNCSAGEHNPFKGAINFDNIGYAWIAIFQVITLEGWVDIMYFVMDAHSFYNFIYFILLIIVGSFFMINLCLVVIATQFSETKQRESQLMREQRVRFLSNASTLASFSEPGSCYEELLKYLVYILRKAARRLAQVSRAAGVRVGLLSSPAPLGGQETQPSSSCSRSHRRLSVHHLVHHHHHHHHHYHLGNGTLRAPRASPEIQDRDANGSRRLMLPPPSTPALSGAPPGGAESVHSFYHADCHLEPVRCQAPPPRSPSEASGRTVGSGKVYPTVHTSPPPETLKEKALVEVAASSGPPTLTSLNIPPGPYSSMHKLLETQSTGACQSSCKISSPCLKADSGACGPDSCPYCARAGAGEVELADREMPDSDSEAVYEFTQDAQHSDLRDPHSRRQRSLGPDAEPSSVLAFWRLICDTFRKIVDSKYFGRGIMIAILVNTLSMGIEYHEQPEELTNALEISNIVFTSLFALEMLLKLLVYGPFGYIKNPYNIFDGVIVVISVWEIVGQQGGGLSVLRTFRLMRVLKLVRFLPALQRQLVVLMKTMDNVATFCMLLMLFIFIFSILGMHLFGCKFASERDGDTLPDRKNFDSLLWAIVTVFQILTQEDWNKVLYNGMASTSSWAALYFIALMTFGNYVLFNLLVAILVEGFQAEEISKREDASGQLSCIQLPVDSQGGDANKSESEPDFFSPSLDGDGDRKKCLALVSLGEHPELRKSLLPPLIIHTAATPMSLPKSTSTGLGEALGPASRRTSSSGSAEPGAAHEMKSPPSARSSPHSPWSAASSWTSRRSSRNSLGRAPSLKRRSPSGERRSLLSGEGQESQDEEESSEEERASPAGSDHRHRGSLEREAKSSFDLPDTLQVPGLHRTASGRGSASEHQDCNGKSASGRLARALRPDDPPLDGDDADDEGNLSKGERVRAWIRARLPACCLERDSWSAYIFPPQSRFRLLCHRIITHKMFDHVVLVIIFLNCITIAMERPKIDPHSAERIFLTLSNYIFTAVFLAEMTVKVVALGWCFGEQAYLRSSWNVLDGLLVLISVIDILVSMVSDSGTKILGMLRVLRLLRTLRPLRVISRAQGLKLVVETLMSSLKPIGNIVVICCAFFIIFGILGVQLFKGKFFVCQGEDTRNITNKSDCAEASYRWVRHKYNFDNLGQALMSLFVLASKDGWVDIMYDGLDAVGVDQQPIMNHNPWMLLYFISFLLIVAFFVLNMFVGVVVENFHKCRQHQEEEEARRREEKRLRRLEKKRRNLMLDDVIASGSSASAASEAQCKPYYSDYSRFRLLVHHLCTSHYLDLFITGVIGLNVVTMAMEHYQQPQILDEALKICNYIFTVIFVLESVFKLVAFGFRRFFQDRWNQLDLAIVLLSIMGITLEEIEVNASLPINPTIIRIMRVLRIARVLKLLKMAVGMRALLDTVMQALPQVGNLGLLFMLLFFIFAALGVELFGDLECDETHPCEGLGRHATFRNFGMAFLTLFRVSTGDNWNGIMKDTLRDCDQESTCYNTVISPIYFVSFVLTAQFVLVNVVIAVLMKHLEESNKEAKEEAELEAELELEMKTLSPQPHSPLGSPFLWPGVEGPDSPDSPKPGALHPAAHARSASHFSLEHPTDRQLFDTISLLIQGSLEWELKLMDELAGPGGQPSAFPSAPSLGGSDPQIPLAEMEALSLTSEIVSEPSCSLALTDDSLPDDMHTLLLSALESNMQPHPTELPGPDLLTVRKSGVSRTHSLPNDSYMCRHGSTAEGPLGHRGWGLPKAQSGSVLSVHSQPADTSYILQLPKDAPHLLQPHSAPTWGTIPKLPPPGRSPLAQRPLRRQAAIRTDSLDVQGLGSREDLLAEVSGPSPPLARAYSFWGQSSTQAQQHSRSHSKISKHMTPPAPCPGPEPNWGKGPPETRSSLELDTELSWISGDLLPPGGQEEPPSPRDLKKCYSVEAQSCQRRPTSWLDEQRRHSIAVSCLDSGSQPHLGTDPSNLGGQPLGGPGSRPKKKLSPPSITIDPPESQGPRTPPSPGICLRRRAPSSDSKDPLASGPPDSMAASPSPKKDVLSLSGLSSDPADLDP

| IC50 [1] | IC50 [2] | Compound |
| --- | --- | --- |
| > 10 µM | 0.57 µM | CC(C)(N)CC(=O)N1CCC(CC(=O)Nc2cc(C(F)(F)F)cc(C(F)(F)F)c2)CC1 [Compound 42, 2-(1-(3-amino-3-methylbutanoyl)piperidin-4-yl)-N-(3,5-bis(trifluoromethyl)phenyl)acetamide] |
| > 10 µM | 1.21 µM | O=C(CC1CN(C(=O)C2CCCCN2)C1)Nc1cc(C(F)(F)F)cc(C(F)(F)F)c1 (stereo not drawn) [Compound 39, N-(3,5-bis(trifluoromethyl)phenyl)-2-(1-(piperidine-2-carbonyl)azetidin-3-yl)acetamide] |
| > 10 µM | > 10 µM | CC(C)(N)CC(=O)N1CC(CC(=O)Nc2cc(C(F)(F)F)cc(C(F)(F)F)c2)C1 [Compound 43, 2-(1-(3-amino-3-methylbutanoyl)azetidin-3-yl)-N-(3,5-bis(trifluoromethyl)phenyl)acetamide] |
| > 10 µM | 0.83 µM | N[C@@H]1CCCC[C@H]1C(=O)N1CC(CC(=O)Nc2cc(C(F)(F)F)cc(C(F)(F)F)c2)C1 (racemic) [Compound 40, trans-2-(1-(2-aminocyclohexanecarbonyl)azetidin-3-yl)-N-(3,5-bis(trifluoromethyl)phenyl)acetamide] |
| > 10 µM | 3.37 µM | CC(C)(CN)C(=O)N1CCC(CC(=O)Nc2cc(C(F)(F)F)cc(C(F)(F)F)c2)C1 (stereo not drawn) [Compound 47, 2-(1-(3-amino-2,2-dimethylpropanoyl)pyrrolidin-3-yl)-N-(3,5-bis(trifluoromethyl)phenyl)acetamide] |
| > 10 µM | > 10 µM | CC(C)(CN)C(=O)N1CC(CC(=O)Nc2cc(C(F)(F)F)cc(C(F)(F)F)c2)C1 [Compound 46, 2-(1-(3-amino-2,2-dimethylpropanoyl)azetidin-3-yl)-N-(3,5-bis(trifluoromethyl)phenyl)acetamide] |
| > 10 µM | 0.54 µM | CC(C)(CN)C(=O)N1CCC(CC(=O)Nc2cc(C(F)(F)F)cc(C(F)(F)F)c2)CC1 [Compound 45, 2-(1-(3-amino-2,2-dimethylpropanoyl)piperidin-4-yl)-N-(3,5-bis(trifluoromethyl)phenyl)acetamide] |

Further lines, the compound ahead of its results:

| Compound | IC50 [1] | IC50 [2] |
| --- | --- | --- |
| CC1(C(=O)N2CCC(CC(=O)Nc3cc(C(F)(F)F)cc(C(F)(F)F)c3)C2)CCCCN1 (stereo not drawn) [Compound 34, N-(3,5-bis(trifluoromethyl)phenyl)-2-(1-(2-methylpiperidine-2-carbonyl)pyrrolidin-3-yl)acetamide] | 4.4 µM | 1.94 µM |
| N[C@H]1CCCC[C@@H]1C(=O)N1CCC(CC(=O)Nc2cc(Br)cc(C(F)(F)F)c2)CC1 (racemic) [Compound 19, trans-2-(1-(2-aminocyclohexanecarbonyl)piperidin-4-yl)-N-(3-bromo-5-(trifluoromethyl)phenyl)acetamide] | > 10 µM | 0.28 µM |
| NC1(C(=O)N2CCC(CC(=O)Nc3cc(C(F)(F)F)cc(C(F)(F)F)c3)CC2)CCCCC1 [Compound 9, 2-(1-(1-aminocyclohexanecarbonyl)piperidin-4-yl)-N-(3,5-bis(trifluoromethyl)phenyl)acetamide] | 4.68 µM | 0.99 µM |
| CN1CCCC(C(=O)N2CCC(CC(=O)Nc3cc(C(F)(F)F)cc(C(F)(F)F)c3)CC2)C1 (stereo not drawn) [Compound 1, N-(3,5-bis(trifluoromethyl)phenyl)-2-(1-(1-methylpiperidine-3-carbonyl)piperidin-4-yl)acetamide] | > 10 µM | 0.51 µM |
| CN1CCCCC1C(=O)N1CC(CC(=O)Nc2cc(C(F)(F)F)cc(C(F)(F)F)c2)C1 (stereo not drawn) [Compound 37, N-(3,5-bis(trifluoromethyl)phenyl)-2-(1-(1-methylpiperidine-2-carbonyl)azetidin-3-yl)acetamide] | > 10 µM | 4.39 µM |
| N[C@H]1CCCC[C@@H]1C(=O)N1CCC(CC(=O)Nc2cc(C(F)(F)F)cc(C(F)(F)F)c2)C1 (stereo partly drawn) [Compound 33, 2-(1-((1S,2S)-2-aminocyclohexanecarbonyl)pyrrolidin-3-yl)-N-(3,5-bis(trifluoromethyl)phenyl)acetamide] | 5.29 µM | 0.26 µM |
| N[C@H]1CCCC[C@H]1C(=O)N1CCC(CC(=O)Nc2cc(C(F)(F)F)cc(C(F)(F)F)c2)CC1 (racemic) [Compound 5, cis-2-(1-(2-aminocyclohexanecarbonyl)piperidin-4-yl)-N-(3,5-bis(trifluoromethyl)phenyl)acetamide] | > 10 µM | 0.1 µM |
| N[C@@H]1CCCC[C@@H]1C(=O)N1CCC(CC(=O)Nc2cc(C(F)(F)F)cc(C(F)(F)F)c2)C1 (stereo partly drawn) [Compound 31, 2-(1-((1S,2R)-2-aminocyclohexanecarbonyl)pyrrolidin-3-yl)-N-(3,5-bis(trifluoromethyl)phenyl)acetamide] | 6.19 µM | 0.46 µM |
| N[C@H]1CCCC[C@@H]1C(=O)N1CCC(CC(=O)Nc2cc(C(F)(F)F)cc(C(F)(F)F)c2)CC1 [Compound 7, 2-(1-((1S,2S)-2-aminocyclohexanecarbonyl)piperidin-4-yl)-N-(3,5-bis(trifluoromethyl)phenyl)acetamide] | > 10 µM | 0.14 µM |
| CN1CCCC(C(=O)N2CC(CC(=O)Nc3cc(C(F)(F)F)cc(C(F)(F)F)c3)C2)C1 (stereo not drawn) [Compound 38, N-(3,5-bis(trifluoromethyl)phenyl)-2-(1-(1-methylpiperidine-3-carbonyl)azetidin-3-yl)acetamide] | > 10 µM | 8.04 µM |
| N[C@@H]1CCCC[C@H]1C(=O)N1CCC(CC(=O)Nc2cc(C(F)(F)F)cc(C(F)(F)F)c2)CC1 [Compound 6, 2-(1-((1R,2R)-2-aminocyclohexanecarbonyl)piperidin-4-yl)-N-(3,5-bis(trifluoromethyl)phenyl)acetamide] | > 10 µM | 0.25 µM |
| N[C@H]1CCCC[C@H]1C(=O)N1CCC(CC(=O)Nc2cc(C(F)(F)F)cc(C(F)(F)F)c2)C1 (stereo partly drawn) [Compound 30, 2-(1-((1R,2S)-2-aminocyclohexanecarbonyl)pyrrolidin-3-yl)-N-(3,5-bis(trifluoromethyl)phenyl)acetamide] | 8.95 µM | 0.71 µM |
| CN1CCCCC1C(=O)N1CCC(CC(=O)Nc2cc(C(F)(F)F)cc(C(F)(F)F)c2)C1 (stereo not drawn) [Compound 35, N-(3,5-bis(trifluoromethyl)phenyl)-2-(1-(1-methylpiperidine-2-carbonyl)pyrrolidin-3-yl)acetamide] | 6.02 µM | 1.95 µM |
| N[C@H]1CCCC[C@@H]1C(=O)N1CCC(CC(=O)Nc2cccc(C(F)(F)F)c2)CC1 (racemic) [Compound 13, trans-2-(1-(2-aminocyclohexanecarbonyl)piperidin-4-yl)-N-(3-(trifluoromethyl)phenyl)acetamide] | > 10 µM | 2.67 µM |
| N[C@@H]1CCCC[C@H]1C(=O)N1CCC(CC(=O)Nc2cc(C(F)(F)F)cc(C(F)(F)F)c2)C1 (stereo partly drawn) [Compound 32, 2-(1-((1R,2R)-2-aminocyclohexanecarbonyl)pyrrolidin-3-yl)-N-(3,5-bis(trifluoromethyl)phenyl)acetamide] | 5.66 µM | 0.63 µM |
| N[C@H]1CCCC[C@@H]1C(=O)N1CCC(CC(=O)Nc2ccc(Br)c(C(F)(F)F)c2)CC1 (racemic) [Compound 20, trans-2-(1-(2-aminocyclohexanecarbonyl)piperidin-4-yl)-N-(4-bromo-3-(trifluoromethyl)phenyl)acetamide] | > 10 µM | 0.92 µM |
| N[C@H]1CCCC[C@@H]1C(=O)N1CCC(CC(=O)Nc2cc(Cl)cc(Cl)c2)CC1 (racemic) [Compound 17, trans-2-(1-(2-aminocyclohexanecarbonyl)piperidin-4-yl)-N-(3,5-dichlorophenyl)acetamide] | > 10 µM | 0.69 µM |
